Reference: publication PMC7987348, “Structural basis for human TRPC5 channel inhibition by two distinct inhibitors” (eLife, 2021)
Where two headings read alike, the source gives them in different places.

Legend:
hTRPC5 WT = biological target: T1, hTRPC5 WT (Homo sapiens, UniProt Q9UL62); assay: FLIPR calcium assay, inhibition of extracellular calcium-induced intracellular calcium increase; assay type: cell-based
T1 construct: We use full-length nontagged hTRPC5 construct for FLIPR assay unless indicated otherwise; expressed in transfected cells; host or cells: AD293
T1 sequence (Q9UL62 1-973): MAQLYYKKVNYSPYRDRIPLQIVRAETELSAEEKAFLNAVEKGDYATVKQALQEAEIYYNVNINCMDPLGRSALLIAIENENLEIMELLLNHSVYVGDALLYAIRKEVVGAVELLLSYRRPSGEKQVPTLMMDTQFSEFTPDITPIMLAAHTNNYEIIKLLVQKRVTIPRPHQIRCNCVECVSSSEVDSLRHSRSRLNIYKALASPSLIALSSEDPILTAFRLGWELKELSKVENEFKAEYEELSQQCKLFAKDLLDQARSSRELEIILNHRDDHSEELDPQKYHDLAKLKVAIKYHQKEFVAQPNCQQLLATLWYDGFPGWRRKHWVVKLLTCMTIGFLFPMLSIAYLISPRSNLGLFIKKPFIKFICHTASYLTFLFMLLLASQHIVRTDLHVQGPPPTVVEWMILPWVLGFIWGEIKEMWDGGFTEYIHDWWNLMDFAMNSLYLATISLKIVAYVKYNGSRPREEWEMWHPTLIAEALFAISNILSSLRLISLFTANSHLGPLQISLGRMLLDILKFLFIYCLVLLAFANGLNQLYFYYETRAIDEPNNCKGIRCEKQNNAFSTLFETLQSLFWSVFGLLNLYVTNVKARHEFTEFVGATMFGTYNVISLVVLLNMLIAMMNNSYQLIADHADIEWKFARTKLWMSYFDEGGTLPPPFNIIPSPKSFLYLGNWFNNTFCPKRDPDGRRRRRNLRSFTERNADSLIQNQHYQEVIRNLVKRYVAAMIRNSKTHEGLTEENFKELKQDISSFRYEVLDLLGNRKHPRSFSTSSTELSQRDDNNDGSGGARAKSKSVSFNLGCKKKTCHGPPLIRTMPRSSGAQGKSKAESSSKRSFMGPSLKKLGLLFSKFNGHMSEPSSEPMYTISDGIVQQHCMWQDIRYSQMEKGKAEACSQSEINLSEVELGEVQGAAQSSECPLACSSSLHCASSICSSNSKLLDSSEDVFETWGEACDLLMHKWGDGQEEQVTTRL

TRPC3/6 = test system: TRPC3/6; set-up: method as in Richter et al., 2014; settings: ref Richter et al., 2014; cited from earlier work
hTRPC5_1-764 = biological target: T2, hTRPC5_1-764 (Homo sapiens, UniProt Q9UL62); assay: FLIPR calcium assay, C-terminally truncated construct hTRPC5_1-764; settings: 14 mM extracellular calcium; AD293 cells
T2 sequence (Q9UL62 1-764): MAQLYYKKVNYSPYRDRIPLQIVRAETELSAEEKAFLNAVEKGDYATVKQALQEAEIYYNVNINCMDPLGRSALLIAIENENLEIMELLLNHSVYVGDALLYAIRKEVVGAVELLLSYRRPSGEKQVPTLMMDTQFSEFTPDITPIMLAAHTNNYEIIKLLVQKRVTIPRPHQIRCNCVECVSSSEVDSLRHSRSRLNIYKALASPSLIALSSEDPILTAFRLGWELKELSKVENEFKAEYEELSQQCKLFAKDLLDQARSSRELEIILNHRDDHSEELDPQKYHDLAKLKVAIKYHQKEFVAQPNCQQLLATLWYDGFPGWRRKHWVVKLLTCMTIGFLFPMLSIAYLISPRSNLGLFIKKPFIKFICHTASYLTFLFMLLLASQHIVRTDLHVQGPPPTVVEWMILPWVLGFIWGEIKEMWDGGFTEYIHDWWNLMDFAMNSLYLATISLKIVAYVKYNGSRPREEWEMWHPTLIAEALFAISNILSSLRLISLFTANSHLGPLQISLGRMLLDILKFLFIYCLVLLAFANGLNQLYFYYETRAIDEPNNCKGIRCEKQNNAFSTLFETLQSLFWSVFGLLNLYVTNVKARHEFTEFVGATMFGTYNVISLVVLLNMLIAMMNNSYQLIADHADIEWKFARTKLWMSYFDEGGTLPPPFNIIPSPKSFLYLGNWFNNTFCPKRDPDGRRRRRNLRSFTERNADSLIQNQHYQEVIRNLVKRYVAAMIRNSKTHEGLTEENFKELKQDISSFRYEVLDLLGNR

Clc1ccc(Cn2c(CN3CCCC3)nc3ccccc32)cc1 [CMZ, clemizole]
Hill slope (hTRPC5 WT; CMZ): −2.52
IC50 (hTRPC5 WT; CMZ, 14 mM extracellular calcium, read-out: IC50): 3.07 µM
IC50 (hTRPC5 WT; CMZ, log of IC50 in μM, logIC50 ± SEM, n = 3, read-out: LogIC50 (converted)): 3.09 µM
remaining activity at 0.200195 µM (hTRPC5 WT; read-out: normalized RFU (% WT), Clemizole 0.200195 μM, 14 mM Ca2+, each column one independent experiment): 76.4%
remaining activity at 0.800781 µM (hTRPC5 WT; read-out: normalized RFU (% WT), Clemizole 0.800781 μM, 14 mM Ca2+, each column one independent experiment): 72.6%
remaining activity at 1.60156 µM (hTRPC5 WT; read-out: normalized RFU (% WT), Clemizole 1.60156 μM, 14 mM Ca2+, each column one independent experiment): 70.5%
fold more potent against TRPC5 than TRPC3/6 (TRPC3/6): 10 fold
inhibition of hTRPC5_1-764 (hTRPC5_1-764): can be inhibited
